Results from the supplement of paper PMC10307832.

How the values were obtained:
Test in all cases: relative viability (nuclei count vs DMSO), 5 days (fraction); higher = more cells survive
LU99A = test system: LU99A
Summary of the method: (§1)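 Five library-drug doses in √10 steps were combined with a fixed anchor-drug dose, or a single drug was given alone, by pin tool to lung cancer cell lines in 1536-well plates the day after seeding. Nuclei were stained and counted after 5 days. Relative viability is the nuclei count in treated wells over that in vehicle wells, taken as the median of duplicate plates.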

LXF-289 = test system: LXF-289
Summary of the method: as §1

NCI-H1993 = test system: NCI-H1993
Summary of the method: as §1

NCI-H2009 = test system: NCI-H2009
Summary of the method: as §1

NCI-H2087 = test system: NCI-H2087
Summary of the method: as §1

NCI-H2126 = test system: NCI-H2126
Summary of the method: as §1

NCI-H2170 = test system: NCI-H2170
Summary of the method: as §1

NCI-H727 = test system: NCI-H727
Summary of the method: as §1

PC-14 = test system: PC-14
Summary of the method: as §1

PC-3 [JPC-3] = test system: PC-3 [JPC-3]
Summary of the method: as §1

SK-MES-1 = test system: SK-MES-1
Summary of the method: as §1

For `O=C(O)CCCCC(CCSCc1ccccc1)SCc1ccccc1` (stereo not given) [CPI-613] + COc1cc2c(Oc3ccc(NC(=O)C4(C(=O)Nc5ccc(F)cc5)CC4)cc3F)ccnc2cc1OCCCN1CCOCC1 [Foretinib] (partner 0.25 µM), the relative viability (LU99A; first compound 5 µM) was 0.83, the relative viability (LU99A; first compound 15.81 µM) was 0.776 and the relative viability (LU99A; first compound 50 µM) was 0.733. It also gave a relative viability (LU99A; first compound 158.11 µM) of 0.461, a relative viability (LU99A; first compound 500 µM) of 0.112 and a relative viability (LXF-289; first compound 5 µM) of 0.974. For the same molecule, the relative viability (LXF-289; first compound 15.81 µM) was 0.919, the relative viability (LXF-289; first compound 50 µM) was 0.898 and the relative viability (LXF-289; first compound 158.11 µM) was 0.226. For the same molecule, the relative viability (LXF-289; first compound 500 µM) was 0.0507, the relative viability (NCI-H1993; first compound 5 µM) was 0.829 and the relative viability (NCI-H1993; first compound 15.81 µM) was 0.78. For the same molecule, the relative viability (NCI-H1993; first compound 50 µM) was 0.961, the relative viability (NCI-H1993; first compound 158.11 µM) was 0.509 and the relative viability (NCI-H1993; first compound 500 µM) was 0.452. The relative viability (NCI-H2009; first compound 5 µM) was 1.25, the relative viability (NCI-H2009; first compound 15.81 µM) was 1.16 and the relative viability (NCI-H2009; first compound 50 µM) was 1.12. For the same molecule, the relative viability (NCI-H2009; first compound 158.11 µM) was 0.221, the relative viability (NCI-H2009; first compound 500 µM) was 0.019 and the relative viability (NCI-H2087; first compound 5 µM) was 1.09. For the same molecule, the relative viability (NCI-H2087; first compound 15.81 µM) was 1.11, the relative viability (NCI-H2087; first compound 50 µM) was 1.05 and the relative viability (NCI-H2087; first compound 158.11 µM) was 0.0825. For the same molecule, the relative viability (NCI-H2087; first compound 500 µM) was 0.0183, the relative viability (NCI-H2126; first compound 5 µM) was 1.12 and the relative viability (NCI-H2126; first compound 15.81 µM) was 1.09. For the same molecule, the relative viability (NCI-H2126; first compound 50 µM) was 1.09, the relative viability (NCI-H2126; first compound 158.11 µM) was 1.14 and the relative viability (NCI-H2126; first compound 500 µM) was 1.18. It also gave a relative viability (NCI-H2170; first compound 5 µM) of 0.767, a relative viability (NCI-H2170; first compound 15.81 µM) of 0.906 and a relative viability (NCI-H2170; first compound 50 µM) of 0.929. The relative viability (NCI-H2170; first compound 158.11 µM) was 0.795, the relative viability (NCI-H2170; first compound 500 µM) was 0.139 and the relative viability (NCI-H727; first compound 5 µM) was 0.854. For the same molecule, the relative viability (NCI-H727; first compound 15.81 µM) was 1.39, the relative viability (NCI-H727; first compound 50 µM) was 0.865 and the relative viability (NCI-H727; first compound 158.11 µM) was 0.572. It also gave a relative viability (NCI-H727; first compound 500 µM) of 0.47, a relative viability (PC-14; first compound 5 µM) of 0.953 and a relative viability (PC-14; first compound 15.81 µM) of 0.862. It also gave a relative viability (PC-14; first compound 50 µM) of 0.852, a relative viability (PC-14; first compound 158.11 µM) of 0.845 and a relative viability (PC-14; first compound 500 µM) of 0.991. It also gave a relative viability (PC-3 [JPC-3]; first compound 5 µM) of 0.973, a relative viability (PC-3 [JPC-3]; first compound 15.81 µM) of 0.899 and a relative viability (PC-3 [JPC-3]; first compound 50 µM) of 0.916. For the same molecule, the relative viability (PC-3 [JPC-3]; first compound 158.11 µM) was 0.163, the relative viability (PC-3 [JPC-3]; first compound 500 µM) was 0.139 and the relative viability (SK-MES-1; first compound 5 µM) was 0.999. It also gave a relative viability (SK-MES-1; first compound 15.81 µM) of 0.901, a relative viability (SK-MES-1; first compound 50 µM) of 0.843 and a relative viability (SK-MES-1; first compound 158.11 µM) of 0.831. It also gave a relative viability (SK-MES-1; first compound 500 µM) of 0.84.
